Measured values taken from patent publication US20200010857A1 (priority 2016, published 2020).
Where two headings read alike, the source gives them in different places.

Assays:
[1] = test system: Bacillus sp. STG-83; details: K2TeO3 in rich medium, aerobic; Soudi et al.(2009); cited from earlier work
[2] = test system: Corynebacterium difteriaes; details: K2TeO3 in rich medium, aerobic; Tucker et al. (1961); cited from earlier work
[3] = test system: Paenibacillus TeW; details: K2TeO3 in rich medium, aerobic; Chien et al. (2009); cited from earlier work
[4] = test system: Rhodococcus aetherivorans BCP1; experiment: Minimal Inhibitory Concentration (MIC) of tellurite, kill curve; assay type: cell-based; details: for log reduction of BCP1 viable cells: 24 h
Description: The strain Rhodococcus aetherivorans BCP1 (DSM 44980) was pre-cultured in 250 mL Erlenmeyer Baffled Flask for 2 days, containing 25 mL of Luria-Bertani medium (here indicated as LB) [composed of (g/L) NaCl, 10; Yeast Extract, 5; Tryptone, 10]. When necessary, the medium was solidified by adding 15 g/L of Agar. BCP1 cells were then inoculated (1% v/v) and grown for 5 days in 50 mL of LB medium supplied with either 100 (0.4 mM) or 500 (2 mM) μg/mL of K2TeO3. Here we refer to this first bacterial growth as unconditioned. After this growth step, BCP1 cells were re-inoculated (1% v/v) and cultured for other 5 days in 50 mL of fresh LB medium and 100 or 500 μg/mL of K2TeO3. This secondary bacterial growth is here defined as conditioned. Each culture was incubated aerobically at 30° C. with shaking (150 rpm). In order to evaluate the bacterial growth rate, every 24 h an aliquot (100 μL) of BCP1 cells was collected from each culture and serially diluted in sterile saline solution (NaCl 0.9% w/v). The cells were recovered on LB agar plates for 48 h at 30° C. The number of growing cells is reported as average of the Colony Forming Unit per milliliter (CFU mL^−1) counted for each biological trial (n=3) with standard deviation. All the reagents were purchased from Sigma-Aldrich®.
After 24 h of incubation the number of viable cells was determined by spot plates count on LB agar recovery plates. The assay was conducted in triplicate and the data are reported as average of the CFU mL-1 counted with standard deviation. The established MIC and corresponding kill curve was used to choose the best concentration of K2TeO3 to use for nano-material production.

[5] = test system: Lysinibacillus sp. ZYM-1; details: K2TeO3 in rich medium, aerobic; Zao et al. (2016); cited from earlier work
[6] = test system: Bacillus sp. BZ; details: K2TeO3 in rich medium, aerobic; Zare et al. (2012); cited from earlier work
[7] = test system: bacterial cells; details: cited from earlier work
[8] = test system: Salinicoccus sp. QW6; details: K2TeO3 in rich medium, aerobic; Amoozegar et al. (2008); cited from earlier work
[9] = test system: Rhodococcus aetherivorans BCP1; experiment: Tolerance of BCP1 towards SeO3^2− oxyanions (MIC^Se); assay type: cell-based
Description: (§1) Rhodococcus aetherivorans BCP1 strain (DSM 44980) was pre-cultured in 250 mL Erlenmeyer Baffled Flask for 48 h in 25 mL of Luria-Bertani medium (indicated as LB) [containing (g/L) NaCl, 10; Yeast Extract, 5; Tryptone, 10]. When necessary the medium was solidified by adding 15 g/L of Agar. BCP1 cells were then inoculated (1% v/v) and grown for 120 h in 50 mL of LB broth to which was added either 0.5 mM or 2 mM of Na2SeO3. This first bacterial growth is here defined as unconditioned. After the unconditioned growth, BCP1 cells were re-inoculated (1% v/v) and cultured for other 120 h in 50 mL of fresh LB medium supplied with a new addition of either 0.5 or 2 mM of Na2SeO3. Here we refer to this bacterial growth as conditioned. Unconditioned or conditioned cultures were incubated aerobically at 30° C. with shaking (150 rpm). Bacterial growth rate was evaluated by spot plate count method every 24 h over the incubation time. LB agar plates containing the spotted cells were recovered for 48 h at 30° C. The number of growing cells is reported as mean the Colony forming Unit (log10[CFU/mL]) with standard deviation. All the reagents were purchased from Sigma-Aldrich®.
The BCP1 strain has been exposed to different concentrations of Na2SeO3, ranging from 0.5 to 200 mM as initial concentration to evaluate its tolerance towards these toxic oxyanions. Briefly, after 24 h of exposure to each concentration of Na2SeO3 tested, BCP1 cells were serially diluted in sterile saline solution (NaCl 0.9% w/v) and the number of viable cells were determined by spot plates count on LB agar recovery plates. The assay was conducted in triplicate and the viable cell numbers are indicated as the average of the log10[CFU/mL] with standard deviation.

[10] = test system: Rhodococcus aetherivorans BCP1; experiment: Growth of BCP1 in LB supplied with Na2SeO3 (spot plate count); assay type: cell-based; details: unconditioned cells
Description: as §1

Q: Which “MIC^Te” value [1] does the source give for `O=[Te]([O-])[O-].[K+].[K+]` [K2TeO3, potassium tellurite] here?
A: 1250 µM

Q: What about the “MIC^Te” value [2] of the same compound?
A: 1000 µM

Q: What about the “MIC^Te” value [3] of the same compound?
A: 1000 µM

Q: And the “number of BCP1 viable cells” value ([4]; 24 h exposure to 100 μg/mL K2TeO3)?
A: 5.00·10^5 CFU/mL

Q: And the “number of BCP1 viable cells” value ([4]; 24 h exposure to 500 μg/mL K2TeO3)?
A: 1.00·10^5 CFU/mL

Q: And the “decrease of number of BCP1 viable cells” value ([4]; 24 h exposure to 100 or 500 μg/mL K2TeO3)?
A: less than 1 log

Q: And the “Minimal Inhibitory Concentration (MIC) of TeO3^2−” value ([4]; 24 h exposure to K2TeO3 in LB, aerobic)?
A: 2800 µg/mL

Q: What about the “Minimal Inhibitory Concentration (MIC^Te)” value ([4]; 24 h exposure to K2TeO3 in rich medium (LB), aerobic) of the same compound?
A: 11200 µM

Q: And the “log reduction of BCP1 viable cells” value ([4]; K2TeO3 varied from 100 to 1000 μg/mL (0.4-4 mM))?
A: 1 log

Q: And the “log reduction of BCP1 viable cells” value ([4]; K2TeO3 varied from 100 to 2000 μg/mL (0.4-8 mM))?
A: 2 log

Q: And the “log reduction of viable cells vs number at time of inoculation” value ([4]; at the MIC, 2800 μg/mL K2TeO3, 24 h)?
A: 3 log

Q: What about the “BCP1 strain tolerance relative to MIC^Te of Corynebacterium difteriaes” value ([4]; ratio of MIC^Te values) of the same compound?
A: ten times higher

Q: And the “MIC^Te” value [5]?
A: 2000 µM

Q: What about the “MIC^Te” value [6] of the same compound?
A: 800 µM

Q: And the “MIC^Te” value ([7]; aerobic growth)?
A: 2 µg/mL

Q: And the “MIC^Te” value ([7]; anaerobic growth)?
A: 250 µg/mL

Q: And the “MIC^Te” value [8]?
A: 12000 µM

Q: With `O=[Se](O)O` [Na2SeO3, sodium selenite] as the compound, how does the “log reduction in number of viable cells” value ([9]; 0.5 mM versus 200 mM Na2SeO3, 24 h) read?
A: 2 log

Q: And the “number of viable cells” value ([9]; 24 h exposure to 0.5 mM Na2SeO3)?
A: 2.00·10^6 CFU/mL

Q: What about the “number of viable cells” value ([9]; 24 h exposure to 0.5 mM Na2SeO3, listed as SeO3^2−) of the same compound?
A: 2·10^6 CFU/mL

Q: What about the “number of viable cells” value ([9]; 24 h exposure to 2 mM SeO3^2−) of the same compound?
A: 1.72·10^6 CFU/mL

Q: And the “number of viable cells” value ([9]; 24 h exposure to 200 mM Na2SeO3)?
A: 6.17·10^4 CFU/mL

Q: What about the “BCP1 tolerance, times higher than MIC^Se of Streptomyces microflavus FSHJ31” value ([9]; ratio of MIC^Se values) of the same compound?
A: 80 times

Q: And the “BCP1 tolerance, times higher than MIC^Se of Streptomyces sp. ES2-5” value ([9]; ratio of MIC^Se values)?
A: 4 times

Q: What about the “number of live cells counted” value ([10]; 0.5 mM Na2SeO3, 72 h) of the same compound?
A: 6.33·10^6 CFU/mL

Q: What about the “number of viable cells” value ([10]; 0.5 mM Na2SeO3, 120 h) of the same compound?
A: 1.2·10^6 CFU/mL

Q: And the “number of growing cells” value ([10]; 2 mM Na2SeO3, 72 h)?
A: 4.24·10^6 CFU/mL

Q: And the “number of growing cells” value ([10]; 2 mM Na2SeO3, 120 h)?
A: 9.83·10^5 CFU/mL
